Measurements reported in paper PMC9223397 (International Journal of Molecular Sciences, 2022).

Tests used:
[1] = target: T1, human Sigma-2 receptor (Sig-2R) (Homo sapiens, UniProt Q5BJF2); assay: Human Sig-2R radioligand assay; assay type: binding; conditions: [3H]-DTG, transfected HEK-293 Sig-1R knockout membranes
T1 construct: expressed in transfected cells; host or cells: HEK-293 Sig-1R knockout (membranes)
Experimental: The binding properties of the compounds to the human Sig-2R were similarly studied in transfected HEK-293 Sig-1R knockout membranes using [^3H]-1,3-di-o-tolylguanidine (DTG) (NET-986, PerkinElmer; Boston, USA) as the radioligand. The assay was carried out with 15 μg of membrane suspension, [^3H]-1,3-di-o-tolylguanidine (DTG) (10 nM, 100 μL), in either the absence or presence of either buffer or 10 μM haloperidol for total (TB) and nonspecific (NSB) binding, respectively, or the corresponding compound concentration. Binding buffer contained Tris-HCl (50 mM, pH 7.4). Plates were incubated at 25 °C for 120 min. After incubation, the reaction mix was transferred to MultiScreen HTS, FC plates (Merck Millipore) presoaked in 0.5% polyethyleneimine, and filtered. Following that, plates were washed with ice-cold Tris-HCl (10 mM, pH 8). Filters were dried and counted, and data were processed as above.

Sig-1R/BiP interaction = assay: BiP/Sig-1R association assay in CHO cells; assay type: cell-based; conditions: for Effect on association between Sig-1R and BiP, compound alone: 30 µM; for Effect on Sig-1R/BiP interaction (concentration-response): CHO cells, 37 °C 30 min, co-IP/ELISA; for Functional profile for Sig-1R: based on BiP/Sig-1R association assay
Experimental: The interaction between Sig-1R and the chaperone BiP was used to identify the functional nature (agonistic or antagonistic) of compounds [38]. The assay was conducted by Amylgen according to their standard assay protocol (https://www.amylgen.fr/ (accessed on 15 May 2022)). Each assay condition consisted of six determinations. In brief, CHO cells were treated with compounds at 37 °C for 30 min and lysed. CHO cell lysates were immunoprecipitated with Sig-1R antibody, and coimmunoprecipitated BiP was detected by ELISA assay. In each experiment, untreated control cell lysates were used to assess the maximal level of Sig1R-BiP interaction and represented 100% of Sig1R-BiP association. Cells treated with compounds at the corresponding concentrations were equally processed, and the level of Sig1R-BiP association in those conditions was referred to as the control condition. In this experimental setting, Sig1R agonists were able to reduce the Sig1R-BiP interaction, while antagonists were not.

[2] = system: SMI-32-positive MNs in spinal cord organotypic cultures; assay: Spinal cord organotypic cultures (SCOC) under chronic excitotoxicity (THA); assay type: cell-based, Sprague–Dawley rats; conditions: THA 100 µM, 28 DIV; tested at 0.03, 0.3, 3, 30 µM
Experimental: SCOCs from lumbar sections of 8-day-old Sprague–Dawley rats were prepared as previously described [39]. Briefly, the spinal cord was collected and cut into 350 μm thick transverse sections with a McIlwain Tissue Chopper. Four lumbar sections were transferred onto Millicell-CM nets (0.4 μm, PICM03050, Millipore) in medium (50% (v/v) minimal essential medium (MEM, M5775, Sigma), 2 mM glutamine, 25 mM HEPES, 25% (v/v) Hank’s Balanced Salt Solution (HBSS^−/−;14175, Gibco; UK) supplemented with 25.6 mg/mL glucose, and 25% (v/v) heat-inactivated horse serum (26050-088, Gibco; New Zealand), pH = 7.2). Cultures were maintained at 37 °C in a 5% CO2 humidified cabin and left to stabilize. After 7 days in vitro (DIV), DL-threo-β-hydroxyaspartic acid (THA; 100 μM: H2775, Sigma Aldrich, St. Louis, MI, USA) was added to induce chronic excitotoxicity [28]. […] In vitro experiments were performed in three independent cultures, with at least 12 different SCOCs for each experimental condition.
Slices were maintained for 28 DIV and then fixed with 4% PFA. […] MN survival was assessed by counting all SMI-32-positive neurons in each spinal cord using the Cell Counter plugin of ImageJ software.

[3] = Tolerability of chronic administration in rhizotomy mice; assay type: in vivo; conditions: twice daily i.p. for 6 weeks, 0.5 and 5 mg/kg
Experimental: (§1) The compounds were dissolved in 0.5% hydroxypropyl-methylcellulose (HPMC; H7509, Sigma-Aldrich) in distilled water and were administered by intraperitoneal (i.p.) route twice daily (bid) in a volume of 10 mL/kg. Administrations were given from 30 min after rhizotomy surgery until 42 days post-injury (dpi), the end of the study; in the SOD1^G93A study, treatments were given from 8 to 16 weeks of age (see Figure 6).

[4] = system: spinal α-MNs in SOD1^G93A mice; assay: Spinal MN counts in SOD1G93A mice; assay type: in vivo, SOD1^G93A male mice; conditions: 5 mg/kg i.p.; 16 weeks of age; untreated 6.9 ± 0.5, WT 25.3 ± 0.5
Experimental: as §1
At the end of follow-up (42 dpi for rhizotomy and 16 weeks of age for ALS mice; Figure 6), the animals were deeply anesthetized and transcardially perfused with 4% PFA in PBS. The lumbar spinal cord and the TA muscle were harvested and cryopreserved in 30% sucrose solution in PB. The spinal cords were serially cut in 20 µm thick transverse sections with a cryostat (Leica, Mannheim, Germany). For MN counting, L4-L5 spinal cord sections separated 100 µm were stained for 3 h with an acidified solution of 3.1 mM cresyl violet. MNs were identified by their localization in the lateral ventral horn of the spinal cord and were counted following strict size and morphological criteria: only MNs with a diameter larger than 20 µm, polygonal shape, and prominent nucleoli were counted.

SOD1^G93A mice = assay: Rotarod test in SOD1G93A mice; assay type: in vivo, SOD1^G93A male mice; conditions: 5 mg/kg i.p.; at 15 weeks of age
Experimental: as §1
A rotarod test was performed to evaluate motor coordination and strength. The time that each animal remained on the rotating rod at a speed of 14 rpm was measured for five trials per mouse, and the longest time until falling was recorded; 180 s was chosen as the cut-off time. The test was performed weekly from 8 to 16 weeks of age in SOD1^G93A and WT mice, and disease onset was determined as the first week when each mouse was unable to keep walking for 180 s on the rod.

[5] = Body weight in SOD1G93A mice; assay type: in vivo, SOD1^G93A male mice; conditions: 5 mg/kg i.p., 8 to 16 weeks of age
Experimental: as §1

T1 sequence (Q5BJF2 whole entry): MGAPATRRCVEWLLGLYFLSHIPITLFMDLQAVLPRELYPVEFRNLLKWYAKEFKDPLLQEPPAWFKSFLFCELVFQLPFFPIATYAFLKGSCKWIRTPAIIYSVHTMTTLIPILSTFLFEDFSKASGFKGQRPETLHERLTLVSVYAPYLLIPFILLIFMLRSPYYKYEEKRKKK

SMILES | IC50 [1] | Effect on association between Sig-1R and BiP, compound alone (Sig-1R/BiP interaction) | Effect on Sig-1R/BiP interaction (concentration-response) (Sig-1R/BiP interaction) | Functional profile for Sig-1R (Sig-1R/BiP interaction) | Reversion of the effect of PRE-084 on Sig-1R/BiP association (Sig-1R/BiP interaction; compound 30 µM, PRE-084 10 µM) | Number of SMI-32-positive MNs vs THA condition [2] | Toxicity of chronic administration (behavior, body weight) [3] | Number of surviving spinal α-MNs [4] | Rotarod performance vs vehicle (SOD1^G93A mice) | Body weight vs vehicle group [5]
CCN1CC2(CCN(Cc3ccc(C#N)c(F)c3)CC2)O[C@@H](C)C1=O [EST79376] | > 10 µM | had no effect on its own | did not produce any change in the interaction between the two proteins | antagonist | able to revert the effect of PRE-084 | significantly preserved MNs | did not cause overt toxicity in the animals | 8.5 ± 1.0 MNs per section | – | –
C[C@@H]1OC2(CCN(Cc3ccc(F)cc3)CC2)CN(C)C1=O [EST79232] | > 10 µM | able to reduce the association between Sig-1R and BiP | concentration-dependent dissociation of Sig-1R from BiP | agonist | – | significantly more SMI-32-positive neurons at three concentrations tested | did not cause overt toxicity in the animals | 10.8 ± 1.1 MNs per section | significant improvement | did not cause differences in body weight
